PMC8217170, “Phase Ib dose-escalation study of the hypoxia-modifier Myo-inositol trispyrophosphate in patients with hepatopancreatobiliary tumors” (Nature Communications, 2021)
Where “and” joins values, the source holds several entries; their conditions need not be identical. Equal entries are not always repeated.

Experiment: Plasma levels and pharmacokinetics of intravenous ITPP
[1] = individual patients, cohort 1 (1866 mg/m2)
[2] = individual patients, cohort 2 (3732 mg/m2)

## O=P1(O)OC2C3OP(=O)(O)OP(=O)(O)OC3C3OP(=O)(O)OP(=O)(O)OC3C2OP(=O)(O)O1 (centres unmarked) [ITPP, Myo-inositol trispyrophosphate]
Cohort 2, patient 7, day 2, hour 0, sample 8_2_1
  ITPP plasma levels: Concentration: 0 µg/mL
Cohort 2, patient 7, day 2, hour 9
  ITPP plasma levels, Concentration: 98.6 µg/mL
Cohort 2, patient 7, day 3, hour 0
  ITPP plasma levels, Concentration: 0 µg/mL
Cohort 2, patient 7, day 3, hour 9
  ITPP plasma levels, Concentration: 93.7 µg/mL
Cohort 3, 5600 mg/m2
  AUC: 1168.7 µg·h/mL
  AUMC: 6445.9 h2*mg/L
  CL: 4.4 L/h
  Clast: 59.5 µg/mL
  Cmax: 153.4 µg/mL
  Cmin: 0 ng/mL
  Elimination rate λz: 0.5 h⁻¹
  Half life/T0.5: 1.4 h
  MRT: 1.5 h
  Tlast: 10.0 h
  Tmax: 6.0 h
  VSS: 9.2 L
Cohort 4, 7000 mg/m2
  AUC: 1649.5 µg·h/mL
  AUMC: 9421.8 h2*mg/L
  CL: 3.1 L/h
  Clast: 127.5 µg/mL
  Cmax: 228.0 µg/mL
  Cmin: 0 ng/mL
  Elimination rate λz: 0.2 h⁻¹
  Half life/T0.5: 3.3 h
  MRT: 1.7 h
  Tlast: 10.0 h
  Tmax: 6.0 h
  VSS: 12.8 L
Cohort 5, 8750 mg/m2
  AUC: 1850.5 µg·h/mL
  AUMC: 10396.4 h2*mg/L
  CL: 4.0 L/h
  Clast: 116.8 µg/mL
  Cmax: 257.8 µg/mL
  Cmin: 0 ng/mL
  Elimination rate λz: 0.3 h⁻¹
  Half life/T0.5: 2.1 h
  MRT: 1.6 h
  Tlast: 10.0 h
  Tmax: 6.0 h
  VSS: 11.1 L
Cohort 6, 10500 mg/m2
  AUC: 2439.2 µg·h/mL
  AUMC: 13886.7 h2*mg/L
  CL: 3.3 L/h
  Clast: 186.4 µg/mL
  Cmax: 313.4 µg/mL
  Cmin: 0 ng/mL
  Elimination rate λz: 0.3 h⁻¹
  Half life/T0.5: 2.6 h
  MRT: 1.7 h
  Tlast: 10.0 h
  Tmax: 6.0 h
  VSS: 11.7 L
Cohort 7, 12390 mg/m2
  AUC: 2457.2 µg·h/mL
  AUMC: 14095.2 h2*mg/L
  CL: 4.4 L/h
  Clast: 149.4 µg/mL
  Cmax: 353.6 µg/mL
  Cmin: 0 ng/mL
  Elimination rate λz: 0.4 h⁻¹
  Half life/T0.5: 1.7 h
  MRT: 1.7 h
  Tlast: 10.0 h
  Tmax: 6.0 h
  VSS: 11.4 L
Cohort 8, 14500 mg/m2
  AUC: 2864.1 µg·h/mL
  AUMC: 16280.4 h2*mg/L
  CL: 4.4 L/h
  Clast: 166.0 µg/mL
  Cmax: 439.2 µg/mL
  Cmin: 0 ng/mL
  Elimination rate λz: 0.4 h⁻¹
  Half life/T0.5: 1.8 h
  MRT: 1.7 h
  Tlast: 10.0 h
  Tmax: 6.0 h
  VSS: 11.4 L
[1]
  AUCTmax: 338.2 µg·h/mL and 372.1 µg·h/mL and 311.3 µg·h/mL and 349.1 µg·h/mL
  AUC∞: 366.8 µg·h/mL
  AUC∞ / Dose: 0.2 mg·h/L/mg
  AUMCTmax: 1863.8 h2*mg/L and 2050.4 h2*mg/L and 1825.7 h2*mg/L and 1904.2 h2*mg/L
  AUMC∞: 2201.9 h2*mg/L
  CLO: 5.1 L/h
  Clast: 15.7 µg/mL and 46.6 µg/mL and 22.8 µg/mL and 33.9 µg/mL
  Cmax: 45.8 µg/mL and 54.7 µg/mL and 55.3 µg/mL and 42.2 µg/mL
  Cmax / Dose: 0.0 mg/L/mg
  Cmin: 0 ng/mL
  Elimination rate λz: 0.5 h⁻¹
  Half-life / T0.5: 1.3 h
  MRTTmax: 1.5 h (3×) and 1.9 h
  MRT∞: 2.0 h
  Tlast: 10 h (3×) and 9 h
  Tmax: 6.0 h (3×) and 8.5 h
  VSSO: 10.2 L
  VZO: 9.3 L
[2]
  AUCTmax: 745.9 µg·h/mL and 761.5 µg·h/mL and 1032.3 µg·h/mL
  AUC∞: 826.4 µg·h/mL and 896.6 µg·h/mL and 1215.3 µg·h/mL
  AUC∞ / Dose: 0.2 h*mg/L/mg (2×) and 0.3 h*mg/L/mg
  AUMCTmax: 4278.4 h2*mg/L and 4442.2 h2*mg/L and 6030.7 h2*mg/L
  AUMC∞: 5242.1 h2*mg/L and 6142.5 h2*mg/L and 8341.9 h2*mg/L
  CLO: 4.5 L/h and 4.2 L/h and 3.1 L/h
  Clast: 40.6 µg/mL and 52.1 µg/mL and 69.7 µg/mL
  Cmax: 106.3 µg/mL and 106.7 µg/mL and 148.7 µg/mL
  Cmax / Dose: 0.0 mg/L/mg
  Cmin: 0 ng/mL
  Elimination rate λz: 0.5 /h and 0.4 /h (2×)
  Half-life / T0.5: 1.4 h and 1.8 h (2×)
  MRTTmax: 1.7 h and 1.8 h (2×)
  MRT∞: 2.3 h and 2.9 h (2×)
  Tlast: 10 h
  Tmax: 6.0 h
